Key:
NCI-H358 cells = test: NCI-H358 CTG proliferation assay (120 h) (NSCLC, G12C); type: cell-based; conditions: Homo sapiens
Experimental: Additional Proliferation Assays with Mutant Cancer Cell Lines • NCI-H358 CTG proliferation assay (120 h) (NSCLC, G12C)
NCI-H358 cells (ATCC No. CRL-5807) are dispensed into black 384-well plates, flat and clear bottom (Greiner, PNr. 781091) at a density of 200 cells per well in 60 μl RPMI-1640 ATCC-Formulation (Gibco #A10491)+10% FCS (fetal calf serum). […] For the TO time point measurement, untreated cells are analyzed at the time of compound addition. Plates are incubated for 120 h, and cell viability is measured using CellTiter-Glo luminescent cell viability reagent (Promega product code G7570). Viability (stated as percent of control) is defined as relative luminescence units RLU of each well divided by the RLU of cells in DMSO controls.

KRAS (G12D)::SOS1 = molecular target: T1, KRAS (G12D)::SOS1 (Homo sapiens, UniProt P01116, G12D); test: KRAS::SOS1 AlphaScreen binding assay, KRAS G12D; conditions: read-out: KRASG12D IC50
T1 construct: KRAS (G12D) 1-169, N-terminal 6His-tag, C-terminal avi-tag; 6His-tag (N); purchased Xtal BioStructures, Inc. (KRAS); Viva Biotech Ltd (SOS1)
Text: This assay can be used to examine the potency with which compounds according to the invention binding to (mutated) KRAS inhibit the protein-protein interaction between SOS1 and (mutated) KRAS e.g., KRAS WT, KRAS G12C, KRAS G12D, KRAS G12V, KRAS G13D. […] Low IC50 values in this assay setting are indicative of strong inhibition of protein-protein interaction between SOS1 and KRAS:
These assays measure the inhibitory effect of compounds on KRAS mutant protein-protein interactions using the Alpha Screen technology by Perkin Elmer
The following (mutant) enzyme forms of KRAS and interacting proteins are used in these assays at the given concentrations: • KRAS (G12D) 1-169, N-terminal 6His-tag, C-terminal avi-tag (Xtal BioStructures, Inc.); final assay concentration 10 nM and SOS1 564-1049, N-terminal 229 GST-tag, TEV cleavage site (Viva Biotech Ltd); final assay concentration 5 nM; • KRAS (G12C) 1-169, N-terminal 6His-tag for purification, cleaved off, C-terminal avi-tag, biotinylated, mutations: C51S, C80L, C118S (in house); final assay concentration 7.5 nM and SOS1 564-1049, N-terminal 229 GST-tag, TEV cleavage site (Viva Biotech Ltd); final assay concentration 5 nM; • KRAS (G12V) 1-169, N-terminal 6His-tag for purification, cleaved off, C-terminal avi-tag, biotinylated, TEV cleavage site, mutation: C118S, GDP loaded (in house); final assay concentration 10 nM and SOS1 564-1049, N-terminal 229 GST-tag, TEV cleavage site (Viva Biotech Ltd); final assay concentration 10 nM; • KRAS (G13D) 1-169, N-terminal 6His-tag for purification, cleaved off, C-terminal avi-tag, biotinylated, TEV cleavage site, mutation: C118S, GDP loaded (in house); final assay concentration 10 nM and SOS1 564-1049, N-terminal 229 GST-tag, TEV cleavage site (Viva Biotech Ltd); final assay concentration 10 nM; • KRAS (WT) 1-169, N-terminal 6His-tag for purification, cleaved off, C-terminal avi-tag, biotinylated, TEV cleavage site, mutation: C118S, GDP loaded (in house); final assay concentration 10 nM and SOS1 564-1049, N-terminal 229 GST-tag, TEV cleavage site (Viva Biotech Ltd); final assay concentration 10 nM.
Test compounds dissolved in DMSO are dispensed onto assay plates (Proxiplate 384 PLUS, white, PerkinElmer; 6008289) using an Access Labcyte Workstation with the Labcyte Echo 55×. For the chosen highest assay concentration of 100 μM, 150 nL of compound solution are transferred from a 10 mM DMSO compound stock solution. A series of eleven fivefold dilutions per compound are transferred to the assay plate, compound dilutions are tested in duplicates. DMSO are added as backfill to a total volume of 150 nL.
The assays run on a fully automated robotic system in a darkened room below 100 Lux. To 150 nl of compound dilution 10 μl of a mix including KRAS mutant protein, SOS1 (final assay concentrations see above) and GDP nucleotide (Sigma G7127; final assay concentration 10 μM) in assay buffer (1×PBS, 0.1% BSA, 0.05% Tween 20) are added into columns 1-24.
After 30 minutes incubation time 5 μl of Alpha Screen bead mix in assay buffer are added into columns 1-23. Bead mix consists of AlphaLISA Glutathione Acceptor Beads (PerkinElmer, Cat No AL109) and AlphaScreen Streptavidin Donor Beads (PerkinElmer Cat No 6760002) in assay buffer at a final assay concentration of 10 μg/ml each.
Plates are kept at room temperature in a darkened incubator. After an additional 60 minutes incubation time the signal is measured in a PerkinElmer Envision HTS Multilabel Reader using the AlphaScreen specs from PerkinElmer.
Each plate contains up to 16 wells of a negative control depending on the dilution procedure (platewise or serial) (DMSO instead of test compound; with KRAS mutant::SOS1 GDP mix and bead mix; column 23) and 16wells of a positive control (DMSO instead of test compound; with KRAS mutant::SOS1 GDP mix w/o bead mix; column 24).
As internal control known inhibitors of KRAS mutant::SOS1 interaction can be measured on each compound plate. […]

KRAS G12C Ba/F3 = KRAS G12C Ba/F3 (Homo sapiens, UniProt P01116, G12C, cells depend on it); test: Ba/F3 proliferation assay, KRAS G12C; type: cell-based; conditions: 72 h, AlamarBlue, read-out: KRAS G12C Ba/F3 IC50
Experimental: Plasmids containing KRASG12 mutants(i.e. G12D, G12C, G12V) are obtained from GeneScript. To generate KRASG12-dependent Ba/F3 models, Ba/F3 cells are transduced with retroviruses containing vectors that harbor KRASG12 isoforms. Platinum-E cells (Cell Biolabs) are used for retrovirus packaging. Retrovirus is added to Ba/F3 cells. To ensure infection, 4 μg/mL polybrene is added and cells are spinfected. […] Cells with an infection efficiency of 10% to 20% are further cultivated and puromycin selection with 1 μg/mL is initiated. As a control, parental Ba/F3 cells are used to show selection status. Selection is considered successful when parental Ba/F3 cells cultures died. To evaluate the transforming potential of KRASG12 mutations, the growth medium is no longer supplemented with IL-3. Ba/F3 cells harboring the empty vector are used as a control. Approximately ten days before conducting the experiments, puromycin is left out.
Compounds are added using an Access Labcyte Workstation with a Labcyte Echo 550 or 555 accoustic dispenser. All treatments are performed in technical duplicates. […] AlamarBlue™ (ThermoFisher), a viability stain, is added and fluorescence measured in the PerkinElmer Envision HTS Multilabel Reader. The raw data are imported into and analyzed with the Boehringer Ingelheim proprietary software MegaLab (curve fitting based on the program PRISM, GraphPad Inc.).

T1 sequence (P01116 1-169 isoform P01116-2 G12D): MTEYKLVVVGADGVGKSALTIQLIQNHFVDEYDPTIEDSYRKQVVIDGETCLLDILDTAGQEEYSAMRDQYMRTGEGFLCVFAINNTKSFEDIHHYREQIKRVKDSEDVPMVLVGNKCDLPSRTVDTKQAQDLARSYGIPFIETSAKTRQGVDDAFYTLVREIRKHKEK
KRAS G12C Ba/F3, sequence (P01116 whole entry G12C, canonical isoform): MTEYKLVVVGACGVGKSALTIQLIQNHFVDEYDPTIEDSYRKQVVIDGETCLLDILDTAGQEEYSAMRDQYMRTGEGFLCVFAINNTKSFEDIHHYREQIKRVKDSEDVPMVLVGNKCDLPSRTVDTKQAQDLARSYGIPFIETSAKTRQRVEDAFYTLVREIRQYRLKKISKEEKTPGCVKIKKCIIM

Compound | IC50 (NCI-H358 cells) | IC50 (KRAS (G12D)::SOS1) | GI50 (KRAS G12C Ba/F3)
C[C@H](Oc1cc(Nc2cnccn2)nc(-c2noc3c2CCC[C@@]32CCCc3sc(N)c(C#N)c32)n1)[C@@H]1CCCN1C [II-14] | 558 nM | 3 nM | 15 nM
C[C@H](Oc1cc(O[C@H]2CNC(C)(C)C2)nc(-c2noc3c2CCC[C@@]32CCCc3sc(N)c(C#N)c32)n1)[C@@H]1CCCN1C (single isomer, unassigned) [II-8] | 1180 nM | 1 nM | 592 nM
C[C@H](Oc1cc(OCCO)nc(-c2noc3c2CCC[C@@]32CCCc3sc(N)c(C#N)c32)n1)[C@@H]1CCCN1C [II-6] | 165 nM | 1 nM | 11 nM
C[C@H](Oc1cc(Nc2ccccn2)nc(-c2onc3c2CCC[C@@]32CCCc3sc(N)c(C#N)c32)n1)[C@@H]1CCCN1C [Example I-6] | 1360 nM | 4 nM | 58 nM
C[C@H](Oc1cc(O[C@@H]2CNC2(C)C)nc(-c2noc3c2CCC[C@@]32CCCc3sc(N)c(C#N)c32)n1)[C@@H]1CCCN1C [II-9] | 69 nM | 1 nM | 133 nM

The next lines start with the values.

IC50 (NCI-H358 cells) | IC50 (KRAS (G12D)::SOS1) | GI50 (KRAS G12C Ba/F3) | Compound
119 nM | 1 nM | 203 nM | C[C@H](Oc1cc(O[C@@H]2CNC2(C)C)nc(-c2noc3c2CCC[C@@]32CCCc3sc(N)c(C#N)c32)n1)[C@@H]1C[C@@H](F)CN1C [II-31]
123 nM | 3 nM | 29 nM | C[C@H](Oc1cc(Nc2ccncn2)nc(-c2noc3c2CCC[C@@]32CCCc3sc(N)c(C#N)c32)n1)[C@@H]1CCCN1C [II-15]
775 nM | 2 nM | 19 nM | C[C@H](Oc1cc(Nc2ncccn2)nc(-c2noc3c2CCC[C@@]32CCCc3sc(N)c(C#N)c32)n1)[C@@H]1CCCN1C [II-17]

— patent US20250129095A1, “ANNULATED 2-AMINO-3-CYANO THIOPHENES AND DERIVATIVES FOR THE TREATMENT OF CANCER” (Boehringer Ingelheim Int'l GmbH Corp., priority 2021, published 2025)
